Laboratory results taken from US20020051978A1, “Methods and compositions for the identification, assessment, prevention and therapy of human cancers” (priority 2000, published 2002).
Like-named read-outs stand apart in the source and are kept apart here.

How the values were obtained:
[1] = system: 60 cancer cell lines (NCI 60 cancer cell line series); settings: cited from earlier work
[2] = system: 60 cancer cell lines (NCI 60 cancer cell line series); test: NCI-DTP in vitro cancer screen, sulforhodamine B (SRB) growth inhibition, 48 hour exposure; format: cell-based, human; design: key to sensitivity class Ovarian OVCAR-8 CL6005 / sensitivity class Ovarian SK-OV-3 CL6011 / sensitivity class Prostate DU-145 CL11003 / sensitivity class NSCLC NCI-H522 CL1003 / sensitivity class Ovarian IGROV1 CL6010 / sensitivity class Ovarian OVCAR-4 CL6002 / sensitivity class Prostate PC-3(I) CL11001 / sensitivity class Renal A498 CL9013 / sensitivity class Renal SN12C CL9008: sensitivity class: 1 = Low, 2 = Medium, 3 = High
Procedure, shortened: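 Sixty NCI-DTP cancer lines plated at line-specific densities, dosed on day 1 in duplicate with 5 concentrations at ten-fold intervals. After 48 h exposure, cell mass read by SRB staining; GI50 (50% growth inhibition) taken from dose-response curves and expressed as -log GI50.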

O=c1[nH]cc(F)c(=O)[nH]1 [5-Fluorouracil]
-Log (GI50) ([1]; Breast BT-549 (CL5013)): 4.0 | -Log (GI50) ([1]; Breast HS-578T CL5006): 3.7 | -Log (GI50) ([1]; Breast MCF7(I) (CL5001)): 5.7 | -Log (GI50) ([1]; Breast MCF7/ADRr (CL5002)): 4.4 | -Log (GI50) ([1]; Breast MDA-MB-231 CL5005): 3.4 | -Log (GI50) ([1]; Breast MDA-MB-435 (CL5011)): 4.9 | -Log (GI50) ([1]; Breast MDA-N CL5012): 5.0 | -Log (GI50) ([1]; Breast T-47D (CL5014)): 4.2 | -Log (GI50) ([1]; CNS SF-268 CL12014): 4.3 | -Log (GI50) ([1]; CNS SF-295 CL12015): 4.3 | -Log (GI50) ([1]; CNS SF-539 CL12016): 6.1 | -Log (GI50) ([1]; CNS SNB-19 (CL12002)): 3.9 | -Log (GI50) ([1]; CNS SNB-75(I) CL12005): 3.8 | -Log (GI50) ([1]; CNS U251(I) CL12009): 4.3 | -Log (GI50) ([1]; Colon COLO-250 CL4010): 5.2 | -Log (GI50) ([1]; Colon HCC-2998 (CL4002)): 5.9 | -Log (GI50) ([1]; Colon HCT-15 CL4015): 5.2 | -Log (GI50) ([1]; Colon HCT-116 (CL4003)): 5.4 | -Log (GI50) ([1]; Colon HT29(I) CL4001): 5.2 | -Log (GI50) ([1]; Colon KM12 (CL4017)): 4.9 | -Log (GI50) ([1]; Colon SW-620 (CL4009)): 4.6 | -Log (GI50) ([1]; Leukemia CCRF-CEM(I) (CL7003)): 4.5 | -Log (GI50) ([1]; Leukemia HL-60(I) (CL7008)): 4.9 | -Log (GI50) ([1]; Leukemia K562(I) CL7005): 4.8 | -Log (GI50) ([1]; Leukemia MOLT-4 (CL7006)): 4.9 | -Log (GI50) ([1]; Leukemia RPMI-8226(I) (CL7010)): 5.3 | -Log (GI50) ([1]; Leukemia SR CL7019): 5.2 | -Log (GI50) ([1]; Melanoma LOX IMVI CL10001): 5.2 | -Log (GI50) ([1]; Melanoma M14 (CL10014)): 4.3 | -Log (GI50) ([1]; Melanoma MALME-3M CL10002): 4.6 | -Log (GI50) ([1]; NCSLC NCI-H522 CL1003): 4.4 | -Log (GI50) ([1]; NSCLC NCI-H23(I) CL1001): 5.0 | -Log (GI50) ([1]; NSCLC NCI-H332M CL1017): 4.4 | -Log (GI50) ([1]; NSCLC NCI-H460 CL1021): 5.9 | -Log (GI50) ([1]; Ovarian IGROV1 CL6010): 4.8 | -Log (GI50) ([1]; Ovarian OVCAR-3 CL6001): 4.4 | -Log (GI50) ([1]; Ovarian OVCAR-4 CL6002): 4.1 | -Log (GI50) ([1]; Ovarian OVCAR-5 CL6003): 3.8 | -Log (GI50) ([1]; Ovarian OVCAR-8 CL6005): 4.8 | -Log (GI50) ([1]; Ovarian SK-OV-3 CL6011): 3.8 | -Log (GI50) ([1]; Prostate DU-145 CL11003): 5.1 | -Log (GI50) ([1]; Prostate PC-3(I) CL11001): 4.3 | -Log (GI50) ([1]; Renal 786-O CL9018): 4.9 | -Log (GI50) ([1]; Renal A498 CL9013): 5.0 | -Log (GI50) ([1]; Renal ACHN CL9023): 5.0 | -Log (GI50) ([1]; Renal CAKI-1 CL9015): 5.3 | -Log (GI50) ([1]; Renal RXF-393 CL9016): 4.2 | -Log (GI50) ([1]; Renal SN12C CL9008): 4.5 | -Log (GI50) ([1]; Renal TK10 CL9024): 3.6 | -Log (GI50) ([1]; Renal UO-31 CL9004): 5.2 | classification of cell line as Low(1), Medium(2) or High(3) sensitivity to compound ([2]; Breast BT-549 (CL5013)): 1 | classification of cell line as Low(1), Medium(2) or High(3) sensitivity to compound ([2]; Breast HS-578T CL5006): 1 | classification of cell line as Low(1), Medium(2) or High(3) sensitivity to compound ([2]; Breast MCF7(I) (CL5001)): 3 | classification of cell line as Low(1), Medium(2) or High(3) sensitivity to compound ([2]; Breast MCF7/ADRr (CL5002)): 2 | classification of cell line as Low(1), Medium(2) or High(3) sensitivity to compound ([2]; Breast MDA-MB-231 CL5005): 1 | classification of cell line as Low(1), Medium(2) or High(3) sensitivity to compound ([2]; Breast MDA-MB-435 (CL5011)): 2 | classification of cell line as Low(1), Medium(2) or High(3) sensitivity to compound ([2]; Breast MDA-N CL5012): 2 | classification of cell line as Low(1), Medium(2) or High(3) sensitivity to compound ([2]; Breast T-47D (CL5014)): 2 | classification of cell line as Low(1), Medium(2) or High(3) sensitivity to compound ([2]; CNS SF-268 CL12014): 2 | classification of cell line as Low(1), Medium(2) or High(3) sensitivity to compound ([2]; CNS SF-295 CL12015): 2 | classification of cell line as Low(1), Medium(2) or High(3) sensitivity to compound ([2]; CNS SF-539 CL12016): 3 | classification of cell line as Low(1), Medium(2) or High(3) sensitivity to compound ([2]; CNS SNB-19 (CL12002)): 1 | classification of cell line as Low(1), Medium(2) or High(3) sensitivity to compound ([2]; CNS SNB-75(I) CL12005): 1 | classification of cell line as Low(1), Medium(2) or High(3) sensitivity to compound ([2]; CNS U251(I) CL12009): 2 | classification of cell line as Low(1), Medium(2) or High(3) sensitivity to compound ([2]; Colon COLO-250 CL4010): 2 | classification of cell line as Low(1), Medium(2) or High(3) sensitivity to compound ([2]; Colon HCC-2998 (CL4002)): 3 | classification of cell line as Low(1), Medium(2) or High(3) sensitivity to compound ([2]; Colon HCT-15 CL4015): 2 | classification of cell line as Low(1), Medium(2) or High(3) sensitivity to compound ([2]; Colon HCT-116 (CL4003)): 3 | classification of cell line as Low(1), Medium(2) or High(3) sensitivity to compound ([2]; Colon HT29(I) CL4001): 2 | classification of cell line as Low(1), Medium(2) or High(3) sensitivity to compound ([2]; Colon KM12 (CL4017)): 2 | classification of cell line as Low(1), Medium(2) or High(3) sensitivity to compound ([2]; Colon SW-620 (CL4009)): 2 | classification of cell line as Low(1), Medium(2) or High(3) sensitivity to compound ([2]; Leukemia CCRF-CEM(I) (CL7003)): 2 | classification of cell line as Low(1), Medium(2) or High(3) sensitivity to compound ([2]; Leukemia HL-60(I) (CL7008)): 2 | classification of cell line as Low(1), Medium(2) or High(3) sensitivity to compound ([2]; Leukemia K562(I) CL7005): 2 | classification of cell line as Low(1), Medium(2) or High(3) sensitivity to compound ([2]; Leukemia MOLT-4 (CL7006)): 2 | classification of cell line as Low(1), Medium(2) or High(3) sensitivity to compound ([2]; Leukemia RPMI-8226(I) (CL7010)): 3 | classification of cell line as Low(1), Medium(2) or High(3) sensitivity to compound ([2]; Leukemia SR CL7019): 2 | classification of cell line as Low(1), Medium(2) or High(3) sensitivity to compound ([2]; Melanoma LOX IMVI CL10001): 2 | classification of cell line as Low(1), Medium(2) or High(3) sensitivity to compound ([2]; Melanoma M14 (CL10014)): 2 | classification of cell line as Low(1), Medium(2) or High(3) sensitivity to compound ([2]; Melanoma MALME-3M CL10002): 2 | sensitivity class NSCLC NCI-H23(I) CL1001 ([2]; cell line NSCLC NCI-H23(I), CL1001): 2 | sensitivity class NSCLC NCI-H332M CL1017 ([2]; cell line NSCLC NCI-H332M, CL1017): 2 | sensitivity class NSCLC NCI-H460 CL1021 ([2]; cell line NSCLC NCI-H460, CL1021): 3 | sensitivity class NSCLC NCI-H522 CL1003 ([2]; cell line NSCLC NCI-H522, CL1003): 2 | sensitivity class Ovarian IGROV1 CL6010 ([2]; cell line Ovarian IGROV1, CL6010): 2 | sensitivity class Ovarian OVCAR-3 CL6001 ([2]; cell line Ovarian OVCAR-3, CL6001): 2 | sensitivity class Ovarian OVCAR-4 CL6002 ([2]; cell line Ovarian OVCAR-4, CL6002): 2 | sensitivity class Ovarian OVCAR-5 CL6003 ([2]; cell line Ovarian OVCAR-5, CL6003): 1 | sensitivity class Ovarian OVCAR-8 CL6005 ([2]; cell line Ovarian OVCAR-8, CL6005): 2 | sensitivity class Ovarian SK-OV-3 CL6011 ([2]; cell line Ovarian SK-OV-3, CL6011): 1 | sensitivity class Prostate DU-145 CL11003 ([2]; cell line Prostate DU-145, CL11003): 2 | sensitivity class Prostate PC-3(I) CL11001 ([2]; cell line Prostate PC-3(I), CL11001): 2 | sensitivity class Renal 786-O CL9018 ([2]; cell line Renal 786-O, CL9018): 2 | sensitivity class Renal A498 CL9013 ([2]; cell line Renal A498, CL9013): 2 | sensitivity class Renal ACHN CL9023 ([2]; cell line Renal ACHN, CL9023): 2 | sensitivity class Renal CAKI-1 CL9015 ([2]; cell line Renal CAKI-1, CL9015): 3 | sensitivity class Renal RXF-393 CL9016 ([2]; cell line Renal RXF-393, CL9016): 2 | sensitivity class Renal SN12C CL9008 ([2]; cell line Renal SN12C, CL9008): 2 | sensitivity class Renal TK10 CL9024 ([2]; cell line Renal TK10, CL9024): 1 | sensitivity class Renal UO-31 CL9004 ([2]; cell line Renal UO-31, CL9004): 2
